{"source": "paper PMC5513037", "about": "“Examining the influence of specificity ligands and ATP-competitive ligands on the overall effectiveness of bivalent kinase inhibitors” (Proteome Science, 2017)", "assay_in_all_cases": "KAM-matrix competition in K562 lysate;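 as to 0.001 uM KAM: median log10 fold change of treatment over DMSO control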;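 as to 0.01 uM KAM: median log10 fold change of treatment over DMSO control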;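 as to 0.1 uM KAM: median log10 fold change of treatment over DMSO control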;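 as to 1 uM KAM: median log10 fold change of treatment over DMSO control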;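 as to 10 uM KAM: median log10 fold change of treatment over DMSO control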", "type_in_all_cases": "binding", "key": {"ADCK3": {"biological_target": "T1, ADCK3 (Homo sapiens, UniProt Q8NI60)", "T1 construct": "endogenous in cells; host or cells: K562", "T1 sequence (Q8NI60 163-647)": "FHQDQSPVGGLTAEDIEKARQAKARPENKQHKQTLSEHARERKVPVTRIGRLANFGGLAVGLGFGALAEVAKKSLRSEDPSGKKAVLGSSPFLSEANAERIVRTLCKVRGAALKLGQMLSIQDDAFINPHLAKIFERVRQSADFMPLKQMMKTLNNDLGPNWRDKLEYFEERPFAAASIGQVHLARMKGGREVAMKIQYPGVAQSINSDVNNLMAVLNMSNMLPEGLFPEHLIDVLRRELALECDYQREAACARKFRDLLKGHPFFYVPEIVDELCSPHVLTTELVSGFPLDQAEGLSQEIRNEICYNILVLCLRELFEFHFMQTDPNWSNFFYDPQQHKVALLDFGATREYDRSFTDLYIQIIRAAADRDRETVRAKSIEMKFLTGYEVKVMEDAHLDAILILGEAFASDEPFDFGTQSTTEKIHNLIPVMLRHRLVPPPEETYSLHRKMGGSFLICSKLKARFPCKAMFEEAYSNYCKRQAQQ", "procedure": "(§1) Supplement 12953_2017_125_MOESM1_ESM.zip/MS_Supp Info.xlsx, sheet \"KAM\" | column: 10 uM KAM; 1 uM KAM; 0.1 uM KAM; 0.01 uM KAM; 0.001 uM KAM; RB50"}, "TAOK3": {"biological_target": "T2, TAOK3 (Homo sapiens, UniProt Q9H2K8)", "T2 construct": "endogenous in cells; host or cells: K562", "T2 sequence (Q9H2K8 1-898)": "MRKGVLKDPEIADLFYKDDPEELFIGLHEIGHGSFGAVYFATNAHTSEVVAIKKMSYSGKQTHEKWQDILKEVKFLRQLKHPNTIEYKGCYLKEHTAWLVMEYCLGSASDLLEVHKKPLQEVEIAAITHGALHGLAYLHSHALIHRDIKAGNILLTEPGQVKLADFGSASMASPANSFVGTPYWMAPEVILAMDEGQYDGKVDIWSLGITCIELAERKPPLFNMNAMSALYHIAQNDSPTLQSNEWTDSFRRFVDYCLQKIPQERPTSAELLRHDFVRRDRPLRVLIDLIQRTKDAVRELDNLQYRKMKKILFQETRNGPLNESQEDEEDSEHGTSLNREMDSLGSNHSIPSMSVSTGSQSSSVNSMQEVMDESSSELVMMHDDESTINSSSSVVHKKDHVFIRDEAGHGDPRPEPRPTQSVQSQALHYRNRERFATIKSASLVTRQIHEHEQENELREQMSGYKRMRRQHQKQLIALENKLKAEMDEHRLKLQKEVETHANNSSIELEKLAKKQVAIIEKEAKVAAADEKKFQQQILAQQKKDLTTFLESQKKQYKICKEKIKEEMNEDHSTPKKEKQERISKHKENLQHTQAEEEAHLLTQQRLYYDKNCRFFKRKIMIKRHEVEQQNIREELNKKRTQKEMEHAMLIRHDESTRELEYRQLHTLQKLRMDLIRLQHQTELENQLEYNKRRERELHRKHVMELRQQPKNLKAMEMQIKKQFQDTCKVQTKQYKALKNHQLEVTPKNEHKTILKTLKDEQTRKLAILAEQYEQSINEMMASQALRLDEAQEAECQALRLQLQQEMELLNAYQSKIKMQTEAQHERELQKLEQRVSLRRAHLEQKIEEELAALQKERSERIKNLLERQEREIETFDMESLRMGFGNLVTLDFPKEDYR", "procedure": "as §1"}, "PLK4": {"biological_target": "T3, PLK4 (Homo sapiens, UniProt O00444)", "T3 construct": "endogenous in cells; host or cells: K562", "T3 sequence (O00444 1-970)": "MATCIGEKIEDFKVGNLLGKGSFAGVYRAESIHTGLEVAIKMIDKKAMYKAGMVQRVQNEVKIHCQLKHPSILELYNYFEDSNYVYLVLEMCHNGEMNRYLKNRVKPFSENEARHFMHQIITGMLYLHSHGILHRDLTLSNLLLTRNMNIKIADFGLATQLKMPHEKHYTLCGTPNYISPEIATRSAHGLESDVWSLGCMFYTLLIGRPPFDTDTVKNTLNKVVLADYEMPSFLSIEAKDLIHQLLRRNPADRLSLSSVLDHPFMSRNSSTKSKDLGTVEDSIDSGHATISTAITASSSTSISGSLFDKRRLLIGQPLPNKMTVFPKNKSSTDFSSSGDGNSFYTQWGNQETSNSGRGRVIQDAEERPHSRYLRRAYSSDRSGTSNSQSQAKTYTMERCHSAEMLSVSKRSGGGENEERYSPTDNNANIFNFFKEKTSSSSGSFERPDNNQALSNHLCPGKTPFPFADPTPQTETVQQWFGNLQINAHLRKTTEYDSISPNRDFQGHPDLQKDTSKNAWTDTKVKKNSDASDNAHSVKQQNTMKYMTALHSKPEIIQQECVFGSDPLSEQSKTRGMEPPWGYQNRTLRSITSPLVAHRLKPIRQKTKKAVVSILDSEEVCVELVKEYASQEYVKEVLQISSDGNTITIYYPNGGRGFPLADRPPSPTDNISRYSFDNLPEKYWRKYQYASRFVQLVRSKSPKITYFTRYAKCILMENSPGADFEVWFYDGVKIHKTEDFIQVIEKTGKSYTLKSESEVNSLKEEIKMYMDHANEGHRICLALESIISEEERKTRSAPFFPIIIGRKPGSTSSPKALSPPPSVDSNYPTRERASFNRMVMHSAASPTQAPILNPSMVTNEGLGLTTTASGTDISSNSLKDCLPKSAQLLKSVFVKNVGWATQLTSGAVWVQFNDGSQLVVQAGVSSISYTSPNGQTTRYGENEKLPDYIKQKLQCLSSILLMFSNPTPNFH", "procedure": "as §1"}, "INSR": {"biological_target": "T4, INSR (Homo sapiens, UniProt P06213)", "T4 construct": "endogenous in cells; host or cells: K562", "T4 sequence (P06213 28-1382)": "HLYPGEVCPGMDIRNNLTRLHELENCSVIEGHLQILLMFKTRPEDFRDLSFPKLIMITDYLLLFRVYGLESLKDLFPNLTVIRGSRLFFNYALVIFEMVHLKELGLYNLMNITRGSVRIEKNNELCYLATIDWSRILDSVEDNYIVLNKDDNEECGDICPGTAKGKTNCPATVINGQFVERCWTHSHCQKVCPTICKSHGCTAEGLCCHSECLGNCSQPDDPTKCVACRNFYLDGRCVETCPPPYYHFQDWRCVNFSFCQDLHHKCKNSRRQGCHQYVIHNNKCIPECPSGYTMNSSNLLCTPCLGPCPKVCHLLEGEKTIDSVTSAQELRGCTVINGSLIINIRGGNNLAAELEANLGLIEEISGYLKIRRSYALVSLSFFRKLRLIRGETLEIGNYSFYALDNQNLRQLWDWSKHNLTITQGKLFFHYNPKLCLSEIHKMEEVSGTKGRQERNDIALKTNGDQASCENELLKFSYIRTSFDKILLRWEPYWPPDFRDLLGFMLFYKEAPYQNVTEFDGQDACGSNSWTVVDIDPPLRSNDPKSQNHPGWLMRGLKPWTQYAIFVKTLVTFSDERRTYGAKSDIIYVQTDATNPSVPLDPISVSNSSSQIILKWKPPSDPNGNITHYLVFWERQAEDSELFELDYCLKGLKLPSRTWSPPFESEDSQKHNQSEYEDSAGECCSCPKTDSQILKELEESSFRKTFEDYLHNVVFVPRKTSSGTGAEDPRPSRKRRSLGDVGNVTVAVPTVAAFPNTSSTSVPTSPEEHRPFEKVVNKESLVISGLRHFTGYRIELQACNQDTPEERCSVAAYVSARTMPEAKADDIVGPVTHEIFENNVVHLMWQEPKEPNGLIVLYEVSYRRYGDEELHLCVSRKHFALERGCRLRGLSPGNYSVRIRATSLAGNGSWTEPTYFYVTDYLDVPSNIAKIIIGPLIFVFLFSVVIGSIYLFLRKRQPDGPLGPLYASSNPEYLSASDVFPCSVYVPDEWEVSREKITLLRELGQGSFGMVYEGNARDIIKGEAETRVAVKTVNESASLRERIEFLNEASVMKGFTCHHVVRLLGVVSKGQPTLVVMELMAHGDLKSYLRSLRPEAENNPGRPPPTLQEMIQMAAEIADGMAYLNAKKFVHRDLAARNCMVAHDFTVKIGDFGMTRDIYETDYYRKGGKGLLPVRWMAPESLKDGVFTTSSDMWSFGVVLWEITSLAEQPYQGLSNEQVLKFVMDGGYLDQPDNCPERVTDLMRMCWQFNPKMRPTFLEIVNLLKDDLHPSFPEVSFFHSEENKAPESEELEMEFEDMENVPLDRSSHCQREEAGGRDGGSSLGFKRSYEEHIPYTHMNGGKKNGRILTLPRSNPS", "procedure": "as §1"}, "KIT": {"biological_target": "T5, KIT (Homo sapiens, UniProt P10721)", "T5 construct": "endogenous in cells; host or cells: K562 cells (combined S0.8 and P0.8 lysate)", "procedure": "as §1"}, "MAPK9": {"biological_target": "T6, MAPK9 (Homo sapiens, UniProt P45984)", "T6 construct": "endogenous in cells; host or cells: K562", "T6 sequence (P45984 whole entry)": "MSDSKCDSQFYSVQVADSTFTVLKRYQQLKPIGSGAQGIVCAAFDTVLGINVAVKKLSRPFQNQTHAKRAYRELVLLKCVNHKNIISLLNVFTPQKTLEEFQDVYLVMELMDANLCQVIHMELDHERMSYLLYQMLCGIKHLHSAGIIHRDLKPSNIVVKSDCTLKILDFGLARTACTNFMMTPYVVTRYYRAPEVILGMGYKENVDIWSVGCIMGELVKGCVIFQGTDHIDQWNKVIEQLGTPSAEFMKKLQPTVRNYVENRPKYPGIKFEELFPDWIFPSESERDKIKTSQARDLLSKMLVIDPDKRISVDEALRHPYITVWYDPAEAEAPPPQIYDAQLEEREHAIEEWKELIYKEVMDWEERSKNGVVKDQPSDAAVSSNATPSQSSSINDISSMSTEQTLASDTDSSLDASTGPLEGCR", "procedure": "as §1"}, "MAST4": {"biological_target": "T7, MAST4 (Homo sapiens, UniProt O15021)", "T7 construct": "endogenous in cells; host or cells: K562", "T7 sequence (O15021 whole entry)": "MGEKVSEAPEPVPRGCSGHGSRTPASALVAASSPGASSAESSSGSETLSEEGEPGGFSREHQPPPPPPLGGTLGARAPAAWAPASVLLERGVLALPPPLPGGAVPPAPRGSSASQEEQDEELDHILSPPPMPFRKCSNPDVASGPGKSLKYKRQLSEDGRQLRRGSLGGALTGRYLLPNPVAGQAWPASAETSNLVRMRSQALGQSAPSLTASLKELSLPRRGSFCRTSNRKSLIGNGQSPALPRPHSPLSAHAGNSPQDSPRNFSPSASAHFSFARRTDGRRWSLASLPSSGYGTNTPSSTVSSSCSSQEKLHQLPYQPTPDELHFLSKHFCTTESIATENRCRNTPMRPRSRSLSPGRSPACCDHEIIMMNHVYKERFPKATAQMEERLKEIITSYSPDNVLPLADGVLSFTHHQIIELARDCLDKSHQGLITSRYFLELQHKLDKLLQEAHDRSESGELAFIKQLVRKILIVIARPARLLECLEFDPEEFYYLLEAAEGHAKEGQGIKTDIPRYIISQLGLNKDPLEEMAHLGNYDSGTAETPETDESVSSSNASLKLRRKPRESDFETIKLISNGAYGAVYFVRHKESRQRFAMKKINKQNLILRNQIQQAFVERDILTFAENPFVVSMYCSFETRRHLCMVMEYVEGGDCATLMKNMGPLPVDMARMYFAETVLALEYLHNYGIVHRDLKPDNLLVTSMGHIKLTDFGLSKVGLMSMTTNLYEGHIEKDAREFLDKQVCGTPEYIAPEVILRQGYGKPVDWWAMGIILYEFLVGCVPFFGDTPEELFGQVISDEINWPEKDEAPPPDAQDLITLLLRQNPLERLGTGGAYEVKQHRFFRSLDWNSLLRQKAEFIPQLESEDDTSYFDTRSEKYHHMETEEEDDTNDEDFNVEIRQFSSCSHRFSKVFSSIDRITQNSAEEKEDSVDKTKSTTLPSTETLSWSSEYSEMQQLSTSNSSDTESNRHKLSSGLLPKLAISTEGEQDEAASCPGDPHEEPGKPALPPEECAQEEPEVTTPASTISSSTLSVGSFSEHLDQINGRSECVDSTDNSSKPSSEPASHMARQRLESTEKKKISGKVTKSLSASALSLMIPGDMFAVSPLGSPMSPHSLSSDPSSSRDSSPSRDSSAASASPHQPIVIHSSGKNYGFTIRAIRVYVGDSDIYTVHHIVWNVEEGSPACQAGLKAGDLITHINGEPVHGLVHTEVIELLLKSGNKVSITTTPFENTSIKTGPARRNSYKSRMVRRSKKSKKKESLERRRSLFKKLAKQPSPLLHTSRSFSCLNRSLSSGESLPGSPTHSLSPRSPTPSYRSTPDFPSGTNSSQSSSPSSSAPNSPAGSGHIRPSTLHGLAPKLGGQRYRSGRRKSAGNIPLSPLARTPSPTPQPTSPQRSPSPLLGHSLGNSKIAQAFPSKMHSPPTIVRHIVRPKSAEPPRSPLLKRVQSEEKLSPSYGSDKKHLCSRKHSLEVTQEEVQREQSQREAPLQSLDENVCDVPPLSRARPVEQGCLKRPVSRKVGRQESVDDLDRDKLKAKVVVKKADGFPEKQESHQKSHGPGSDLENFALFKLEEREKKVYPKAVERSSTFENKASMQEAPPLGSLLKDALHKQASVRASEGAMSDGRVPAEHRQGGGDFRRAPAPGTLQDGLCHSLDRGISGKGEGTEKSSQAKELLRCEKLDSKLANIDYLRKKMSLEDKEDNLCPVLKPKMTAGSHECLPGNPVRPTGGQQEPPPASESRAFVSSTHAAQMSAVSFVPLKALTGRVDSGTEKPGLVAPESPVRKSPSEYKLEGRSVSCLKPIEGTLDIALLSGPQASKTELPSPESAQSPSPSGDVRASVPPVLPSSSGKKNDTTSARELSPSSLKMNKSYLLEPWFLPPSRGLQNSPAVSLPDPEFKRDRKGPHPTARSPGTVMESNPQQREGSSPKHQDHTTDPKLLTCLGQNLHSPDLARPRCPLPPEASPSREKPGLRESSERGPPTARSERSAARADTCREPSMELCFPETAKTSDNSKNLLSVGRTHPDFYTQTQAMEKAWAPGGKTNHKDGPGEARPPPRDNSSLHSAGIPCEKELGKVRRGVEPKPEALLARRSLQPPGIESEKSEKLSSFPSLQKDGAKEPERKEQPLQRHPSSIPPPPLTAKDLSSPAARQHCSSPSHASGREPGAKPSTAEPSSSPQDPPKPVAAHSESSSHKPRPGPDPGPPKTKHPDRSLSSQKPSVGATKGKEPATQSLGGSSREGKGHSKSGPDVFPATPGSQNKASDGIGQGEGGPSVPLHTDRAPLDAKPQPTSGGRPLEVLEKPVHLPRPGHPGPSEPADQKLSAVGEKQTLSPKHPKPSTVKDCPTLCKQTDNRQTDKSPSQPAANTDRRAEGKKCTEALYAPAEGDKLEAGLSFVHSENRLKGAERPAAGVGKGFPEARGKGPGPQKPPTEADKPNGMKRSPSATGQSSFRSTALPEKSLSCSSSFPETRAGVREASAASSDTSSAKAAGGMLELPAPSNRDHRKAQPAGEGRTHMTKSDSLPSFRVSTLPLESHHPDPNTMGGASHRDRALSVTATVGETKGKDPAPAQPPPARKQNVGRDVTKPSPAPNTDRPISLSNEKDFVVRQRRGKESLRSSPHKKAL", "procedure": "as §1"}, "[1]": {"conditions": "KAM 0.001-10 uM, read-out: RB50 (the source's name)"}, "[2]": {"conditions": "read-out: RB50 (the source's name)"}}, "note": "pIC50: −log10 of the molar value."}
{"smiles": "N#CCc1ccc(Nc2nc(NCCCN)cc(Nc3cc(C4CC4)[nH]n3)n2)cc1", "note": "[KAM]", "values": [{"measurement": "pIC50", "setting": "ADCK3; [1]", "value": "< 5.00"}, {"measurement": "0.001 uM KAM", "setting": "ADCK3; relative to 0 uM KAM = 0", "value": -0.001841}, {"measurement": "0.01 uM KAM", "setting": "ADCK3; relative to 0 uM KAM = 0", "value": 0.006632}, {"measurement": "0.1 uM KAM", "setting": "ADCK3; relative to 0 uM KAM = 0", "value": 0.0007813}, {"measurement": "1 uM KAM", "setting": "ADCK3; relative to 0 uM KAM = 0", "value": 0.03707}, {"measurement": "10 uM KAM", "setting": "ADCK3; relative to 0 uM KAM = 0", "value": -0.06845}, {"measurement": "median Log10 fold change", "setting": "TAOK3; 0.001 uM KAM", "value": -0.0153}, {"measurement": "median Log10 fold change", "setting": "TAOK3; 0.01 uM KAM", "value": 0.005812}, {"measurement": "median Log10 fold change", "setting": "TAOK3; 0.1 uM KAM", "value": -0.1317}, {"measurement": "median Log10 fold change", "setting": "TAOK3; 1 uM KAM", "value": -0.2502}, {"measurement": "median Log10 fold change", "setting": "TAOK3; 10 uM KAM", "value": -0.3407}, {"measurement": "pIC50", "setting": "TAOK3; [2]", "value": 5.57}, {"measurement": "median Log10 fold change", "setting": "PLK4; 0.001 uM KAM", "value": -0.0157}, {"measurement": "median Log10 fold change", "setting": "PLK4; 0.01 uM KAM", "value": 0.006981}, {"measurement": "median Log10 fold change", "setting": "PLK4; 0.1 uM KAM", "value": -0.1724}, {"measurement": "median Log10 fold change", "setting": "PLK4; 1 uM KAM", "value": -0.3044}, {"measurement": "median Log10 fold change", "setting": "PLK4; 10 uM KAM", "value": -0.3267}, {"measurement": "pIC50", "setting": "PLK4; [2]", "value": 5.85}, {"measurement": "pIC50", "setting": "INSR; [1]", "value": "< 5.00"}, {"measurement": "0.001 uM KAM", "setting": "INSR; relative to 0 uM KAM = 0", "value": -0.0389}, {"measurement": "0.01 uM KAM", "setting": "INSR; relative to 0 uM KAM = 0", "value": 0.002129}, {"measurement": "0.1 uM KAM", "setting": "INSR; relative to 0 uM KAM = 0", "value": -0.09696}, {"measurement": "1 uM KAM", "setting": "INSR; relative to 0 uM KAM = 0", "value": -0.2508}, {"measurement": "10 uM KAM", "setting": "INSR; relative to 0 uM KAM = 0", "value": -0.2556}, {"measurement": "pIC50", "setting": "KIT; [1]", "value": "< 5.00"}, {"measurement": "0.001 uM KAM", "setting": "KIT; relative to 0 uM KAM = 0", "value": -0.03484}, {"measurement": "0.01 uM KAM", "setting": "KIT; relative to 0 uM KAM = 0", "value": -0.02696}, {"measurement": "0.1 uM KAM", "setting": "KIT; relative to 0 uM KAM = 0", "value": -0.08182}, {"measurement": "1 uM KAM", "setting": "KIT; relative to 0 uM KAM = 0", "value": -0.1617}, {"measurement": "10 uM KAM", "setting": "KIT; relative to 0 uM KAM = 0", "value": -0.1565}, {"measurement": "median Log10 fold change", "setting": "MAPK9; 0.001 uM KAM", "value": -0.01416}, {"measurement": "median Log10 fold change", "setting": "MAPK9; 0.01 uM KAM", "value": -0.02342}, {"measurement": "median Log10 fold change", "setting": "MAPK9; 0.1 uM KAM", "value": -0.0954}, {"measurement": "median Log10 fold change", "setting": "MAPK9; 1 uM KAM", "value": -0.2518}, {"measurement": "median Log10 fold change", "setting": "MAPK9; 10 uM KAM", "value": -0.4014}, {"measurement": "pIC50", "setting": "MAPK9; [2]", "value": 5.68}, {"measurement": "median Log10 fold change", "setting": "MAST4; 0.001 uM KAM", "value": -0.03696}, {"measurement": "median Log10 fold change", "setting": "MAST4; 0.01 uM KAM", "value": 0.002822}, {"measurement": "median Log10 fold change", "setting": "MAST4; 0.1 uM KAM", "value": -0.135}, {"measurement": "median Log10 fold change", "setting": "MAST4; 1 uM KAM", "value": -0.3289}, {"measurement": "median Log10 fold change", "setting": "MAST4; 10 uM KAM", "value": -0.3337}, {"measurement": "pIC50", "setting": "MAST4; [2]", "value": 5.90}]}
